Measured values as given in US11578061B2, “Inhibitors of LRRK2 kinase” (Halia Therapeutics, Inc., priority 2021, dated 2023).

biological target: recombinant human LRRK2 (catalytic domain only [amino acids 970-2527], GST-tagged) (Homo sapiens (Human), UniProt Q5S007); experiment: LRRK2 Enzymatic Assay; format: biochemical; settings: LRRKtide substrate, [32P]-ATP
Description: LRRKtide substrate (peptide sequence RLGRDKYKTLRQIRQ, derived from human ezrin [amino acids 561-573], moesin [amino acids 539-553] and radixin [amino acids 558-570], obtained from SignalChem, catalogue #L10-58, reconstituted in 20 mM Tris-HCl at pH 7.5 to a final concentration of 1 mg/mL, assay concentration 20 μM) and recombinant human LRRK2 (catalytic domain only [amino acids 970-2527], GST-tagged, expressed in insect cells, obtained from ThermoFisher Scientific, catalogue #PV4874, 0.35 mg/mL, assay concentration 30 nM) were mixed in assay buffer (20 mM Hepes pH 7.5, 10 mM MgCl2, 1 mM EGTA, 0.02% Brij35, 0.02 mg/ml BSA, 0.1 mM Na3VO4, 2 mM DTT, 1% DMSO). Compounds of interest (in DMSO, serial 3-fold dilution from 10 μM to 0.5 nM) or control (1% DMSO) were dispensed into the kinase reaction mixture by Acoustic technology (Echo550; nanoliter range). After incubation at room temperature for 20 minutes, the kinase reaction was initiated by addition of [^32P]-ATP (Specific activity 10 μCi/μl) and the mixture was incubated at room temperature for 2 hours. The reaction was then stopped by spotting the reaction mixture on strips of phosphocellulose P81 paper. Following washing, the radioactivity of the P81 paper was measured and kinase activity data were expressed as the percent remaining kinase activity in test samples compared to vehicle (dimethyl sulfoxide) reactions. IC50 values and curve fits were obtained using Prism (GraphPad Software).

Sequence of recombinant human LRRK2 (catalytic domain only [amino acids 970-2527], GST-tagged) (Q5S007 970-2527): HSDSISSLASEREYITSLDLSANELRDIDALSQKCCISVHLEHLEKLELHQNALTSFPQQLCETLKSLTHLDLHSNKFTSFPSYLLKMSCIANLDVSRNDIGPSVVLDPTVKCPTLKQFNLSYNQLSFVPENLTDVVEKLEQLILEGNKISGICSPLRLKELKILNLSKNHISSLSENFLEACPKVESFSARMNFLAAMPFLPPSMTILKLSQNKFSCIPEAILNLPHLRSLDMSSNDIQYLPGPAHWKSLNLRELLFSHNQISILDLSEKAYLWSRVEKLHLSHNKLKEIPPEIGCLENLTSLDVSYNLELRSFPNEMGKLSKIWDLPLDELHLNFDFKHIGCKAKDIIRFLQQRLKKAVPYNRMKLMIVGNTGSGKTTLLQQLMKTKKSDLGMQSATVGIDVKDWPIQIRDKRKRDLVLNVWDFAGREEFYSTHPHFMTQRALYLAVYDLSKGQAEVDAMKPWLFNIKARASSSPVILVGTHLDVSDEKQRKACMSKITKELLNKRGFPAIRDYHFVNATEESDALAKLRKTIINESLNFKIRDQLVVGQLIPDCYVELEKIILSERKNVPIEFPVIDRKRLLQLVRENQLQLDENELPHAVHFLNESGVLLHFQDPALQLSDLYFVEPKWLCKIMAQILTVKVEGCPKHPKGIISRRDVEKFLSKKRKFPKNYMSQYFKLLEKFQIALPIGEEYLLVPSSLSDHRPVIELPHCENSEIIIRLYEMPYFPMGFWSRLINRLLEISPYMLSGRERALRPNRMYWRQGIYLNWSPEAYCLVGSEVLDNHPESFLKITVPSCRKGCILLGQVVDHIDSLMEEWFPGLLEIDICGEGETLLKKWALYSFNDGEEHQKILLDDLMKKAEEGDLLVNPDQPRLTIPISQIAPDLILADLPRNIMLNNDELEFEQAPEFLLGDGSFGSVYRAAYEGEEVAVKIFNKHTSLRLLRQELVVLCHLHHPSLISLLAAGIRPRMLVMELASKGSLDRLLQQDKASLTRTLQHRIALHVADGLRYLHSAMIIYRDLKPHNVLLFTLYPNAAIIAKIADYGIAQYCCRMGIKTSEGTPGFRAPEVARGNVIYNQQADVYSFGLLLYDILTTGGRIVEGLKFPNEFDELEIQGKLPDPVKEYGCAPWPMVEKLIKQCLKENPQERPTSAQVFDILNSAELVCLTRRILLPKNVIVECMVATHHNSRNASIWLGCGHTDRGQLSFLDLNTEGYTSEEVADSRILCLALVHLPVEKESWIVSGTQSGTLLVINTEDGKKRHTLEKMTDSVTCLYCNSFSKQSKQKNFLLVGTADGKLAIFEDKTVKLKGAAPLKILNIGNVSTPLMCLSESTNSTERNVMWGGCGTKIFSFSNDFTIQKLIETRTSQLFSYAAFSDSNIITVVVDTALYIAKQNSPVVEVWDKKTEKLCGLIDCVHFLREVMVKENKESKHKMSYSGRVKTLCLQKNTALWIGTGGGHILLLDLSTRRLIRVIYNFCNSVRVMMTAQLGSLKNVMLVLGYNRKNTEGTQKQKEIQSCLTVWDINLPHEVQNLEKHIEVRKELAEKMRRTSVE

| IC50 [nM] | Structure (SMILES) |
| --- | --- |
| < 50 | CC(=O)N1CCC(COc2nc(Nc3ccc(N4CCOCC4)cc3)ncc2F)C(F)C1 (single isomer, unassigned) [Example 173, 1-(3-fluoro-4-(((5-fluoro-2-((4-morpholinophenyl)amino)pyrimidin-4-yl)oxy)methyl)piper-idin-1-yl)ethan-1-one] |
| 50 to 200 | OCCn1ncc(Nc2ncc(F)c(OC[C@H]3CC[C@H](O)CC3)n2)c1Cl [Example 240, (1R,4R)-4-(((2-((5-chloro-1-(2-hydroxyethyl)-1H-pyrazol-4-yl)amino)-5-fluoropyrimidin-4-yl)oxy)methyl)cyclohexan-1-ol] |
| 50 to 200 | CC(C)(O)[C@H]1CC[C@H](COc2ccnc(Nc3ccc(N4CCOCC4)cc3)n2)CC1 [Example 136, 2-((1R,4R)-4-(((2-((4-morpholinophenyl)amino)pyrimidin-4-yl)oxy)methyl)cyclohexyl)propan-2-ol] |
| 50 to 200 | COc1cc(C(=O)N2CCOCC2)c(F)cc1Nc1ncc(F)c(OC[C@H]2CC[C@H](O)CC2)n1 [Example 214, (2-fluoro-4-((5-fluoro-4-(((1R,4R)-4 hydroxycyclohexyl)methoxy)pyrimidin-2-yl)amino)-5-methoxyphenyl)(morpholino)methanone] |
| < 50 | Cc1c(Nc2ncc(F)c(OC[C@H]3CC[C@H](O)CC3)n2)cnn1C(C)(C)C#N [Example 234, 2-(4-((5-fluoro-4-(((1R,4R)-4-hydroxycyclohexyl)methoxy)pyrimidin-2-yl)amino)-5-methyl-1H-pyrazol-1-yl)-2-methylpropanenitrile] |
| > 400 | O[C@H]1CC[C@H](COc2nc(Nc3ccc(N4CCOCC4)cc3)nc(Cl)c2F)CC1 [Example 246, (1R,4R)-4-(((6-chloro-5-fluoro-2-((4-morpholinophenyl)amino)pyrimidin-4-yl)oxy)methyl)cyclohexan-1-ol] |
| < 50 | O=C(C(F)F)N1CCC(COc2nc(Nc3cccc(N4CCOCC4)c3)ncc2Cl)CC1 [Example 110, 1-(4-(((5-chloro-2-((3-morpholino-phenyl)amino)pyrimidin-4-yl)oxy)methyl)piperidin-1-yl)-2,2-difluoro-ethan-1-one] |
| < 50 | COc1cnc(Nc2ccc(N3CCOCC3)cc2)nc1OC[C@H]1CC[C@H](N(C)C)CC1 [Example 55, 4-(((1R,4R)-4-(dimethylamino)cyclo-hexyl)methoxy)-5-methoxy-N-(4-morpholinophenyl)py-rimidin-2-amine] |
| < 50 | CC(=O)N[C@H]1CC[C@H](COc2nc(Nc3ccc(N4CCOCC4)cc3)ncc2F)CC1 [Example 82, N-((1R,4R)-4-(((5-fluoro-2-((4-morpholinophenyl)amino)pyrimidin-4-yl)oxy)methyl)cyclo-hexyl)acetamide] |
| < 50 | O=C(N[C@H]1CC[C@@H](COc2nc(Nc3ccc(N4CCOCC4)cc3)ncc2Cl)C1)C(F)F [Example 102, N-((1S,3R)-3-(((5-chloro-2-((4-morpholino-phenyl)amino)pyrimidin-4-yl)oxy)methyl)cyclopentyl)-2,2-difluoro-acetamide] |
| 50 to 200 | Cc1nn(C(C)(C)C#N)cc1Nc1ncc(C#N)c(OCC2CC(F)(F)C2)n1 [Example 155, 2-((1-(2-cyanopropan-2-yl)-3-methyl-1H-pyrazol-4-yl)amino)-4-((3,3-difluorocyclobutyl)methoxy)pyrimidine-5-carbonitrile] |
| 200 to 400 | CC(=O)N1CCC(COc2nc(Nc3ccc(N4C[C@@H](C)O[C@@H](C)C4)cc3)ncc2F)C(F)C1 (single isomer, unassigned) [Example 175] |
| 50 to 200 | CN[C@H]1CC[C@H](COc2ccnc(Nc3cc(F)c(C(=O)N4CCOCC4)cc3OC)n2)CC1 [Example 34, (2-fluoro-5-methoxy-4-((4-(((1R,4R)-4-(methylamino)cyclo-hexyl)methoxy)py-rimidin-2-yl)amino)phenyl) (morpholino) methanone] |
